Data from the supplement of paper PMC10307832.

Assays:
Assay in all cases: relative viability (nuclei count vs DMSO), 5 days (fraction); higher = more cells survive
[1] = compound: Nc1ccn([C@@H]2O[C@H](CO)[C@@H](O)C2(F)F)c(=O)n1 [Gemcitabine] + O=C(CCCCCCC(=O)Nc1ccccc1)NO [Vorinostat] (partner 1 µM)
How it was run: (§1)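 Dosing by pin tool came one day after lung cancer cell lines were seeded in 1536-well plates, using either one drug or a fixed anchor-drug dose plus five library-drug doses (not always all listed) in √10 steps. After 5 days, nuclei were counted on 4× images. Relative viability is treated-well nuclei count divided by vehicle-well nuclei count, and values are medians of duplicate plates.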

[2] = compound: Nc1ccn([C@@H]2O[C@H](CO)[C@@H](O)C2(F)F)c(=O)n1 [Gemcitabine] + CS(=O)(=O)N1CCN(Cc2cc3nc(-c4cccc5[nH]ncc45)nc(N4CCOCC4)c3s2)CC1 [Pictilisib] (partner 1 µM)
How it was run: as §1

[3] = compound: Nc1ccn([C@@H]2O[C@H](CO)[C@@H](O)C2(F)F)c(=O)n1 [Gemcitabine] + C[C@@H](Oc1cc(-c2cnn(C3CCNCC3)c2)cnc1N)c1c(Cl)ccc(F)c1Cl [Crizotinib] (partner 1 µM)
How it was run: as §1

[4] = compound: Nc1ccn([C@@H]2O[C@H](CO)[C@@H](O)C2(F)F)c(=O)n1 [Gemcitabine] + Cc1nc(Nc2ncc(C(=O)Nc3c(C)cccc3Cl)s2)cc(N2CCN(CCO)CC2)n1 [Dasatinib] (partner 0.075 µM)
How it was run: as §1

Cell Line	relative viability ([1]; first compound 0.001 µM)	relative viability ([1]; first compound 0.003162 µM)	relative viability ([1]; first compound 0.01 µM)	relative viability ([1]; first compound 0.03162 µM)	relative viability ([1]; first compound 0.1 µM)	relative viability ([2]; first compound 0.001 µM)	relative viability ([2]; first compound 0.003162 µM)	relative viability ([2]; first compound 0.01 µM)	relative viability ([2]; first compound 0.03162 µM)	relative viability ([2]; first compound 0.1 µM)	relative viability ([3]; first compound 0.001 µM)	relative viability ([3]; first compound 0.003162 µM)	relative viability ([3]; first compound 0.01 µM)	relative viability ([3]; first compound 0.03162 µM)	relative viability ([3]; first compound 0.1 µM)	relative viability ([4]; first compound 0.001 µM)	relative viability ([4]; first compound 0.003162 µM)	relative viability ([4]; first compound 0.01 µM)	relative viability ([4]; first compound 0.03162 µM)	relative viability ([4]; first compound 0.1 µM)
201T	0.999	1.04	0.93	0.43	0.253	0.692	0.71	0.686	0.496	0.321	1.04	1.01	0.975	0.464	0.329	0.551	0.654	0.472	0.32	0.29
A549						0.74	0.367	0.0384	0.0238	0.0155	0.858	0.377	0.229	0.0341	0.0206					
A-427	0.826	0.857	0.671	0.321	0.284	0.748	0.673	0.438	0.155	0.0739	0.984	0.764	0.503	0.124	0.106	0.67	0.629	0.183	0.126	0.109
ABC-1		1.26	1.06	0.303	0.256	0.907	0.832	0.599	0.38	0.278	1.2	1.4	0.829	0.342	0.114	0.548	0.483	0.373	0.175	0.175
BEN	0.653	0.55	0.309	0.253	0.331	0.547	0.477	0.258	0.128	0.119	0.874	0.563	0.139	0.113	0.09	0.331	0.254	0.18	0.0876	0.109
CAL-12T	0.864	0.744	0.715	0.272	0.178	0.289	0.393	0.359	0.267	0.242	0.684	0.745	0.662	0.227	0.104	0.473	0.395	0.302	0.128	0.114
COR-L23	0.486	0.347	0.092	0.0851	0.1	0.686	0.942	0.39	0.148	0.0795	0.72	0.565	0.211	0.0732	0.0754	0.606	0.495	0.201	0.0891	0.0729
COR-L 105	0.82	0.726	0.56	0.336	0.27	0.43	0.377	0.364	0.27	0.269	1.09	0.825	0.577	0.286	0.197	0.295	0.318	0.274	0.198	0.154
Calu-6						0.994	0.705	0.223	0.162	0.108	0.784	0.585	0.279	0.145	0.123					
ChaGo-K-1	0.772	0.68	0.301	0.201	0.177	0.664	0.388	0.363	0.198	0.239	1.12	0.961	0.578	0.36	0.314	0.535	0.544	0.205	0.144	0.166
EKVX	0.747	0.686	0.618	0.27	0.217	0.424	0.336	0.226	0.153	0.108	1	0.872	0.387	0.169	0.159	0.471	0.658	0.546	0.232	0.172
EMC-BAC-2	0.343	0.402	0.234	0.148	0.198	0.615	0.58	0.402	0.196	0.184	0.778	0.768	0.594	0.14	0.149	0.348	0.352	0.181	0.124	0.137
EPLC-272H	0.25	0.29	0.254	0.112	0.056	0.286	0.115	0.304	0.232	0.143	0.766	0.847	0.196	0.175	0.0681	0.421	0.433	0.153	0.112	0.0503
H3255	0.834	0.848	0.289	0.296	0.251	0.524	0.299	0.334	0.194	0.137	0.97	0.439	0.63	0.167	0.176	0.333	0.38	0.349	0.225	0.296
HARA	0.497	0.538	0.444	0.0835	0.0515	0.299	0.483	0.532	0.261	0.0888	0.975	1.02	1.02	0.3	0.124	0.244	0.331	0.241	0.228	0.0727
HCC-15	0.908	0.815	0.739	0.247	0.109	0.763	0.804	0.762	0.323	0.0914	0.929	0.819	0.79	0.192	0.0758	0.589	0.666	0.561	0.0908	0.0718
HCC-44	1.1	1.13	1.04	0.651	0.418	0.58	0.568	0.593	0.392	0.234	0.825	0.756	0.614	0.201	0.154					
HCC-78	0.405	0.276	0.215	0.225	0.23	0.198	0.247	0.201	0.148	0.132	0.271	0.26	0.167	0.146	0.15	0.322	0.31	0.232	0.154	0.209
